What was measured:
Rattus norvegicus [1] = species on record: Rattus norvegicus; test: The biodistribution in bone in normal Wistar rats at 30 min; format: ADME, organism-based, Bone element; details: in vivo, 0.5 h
Rattus norvegicus [2] = species on record: Rattus norvegicus; test: Kidney uptake in normal Wistar rats at 60 min; format: ADME, organism-based; details: in vivo, 1 h
Rattus norvegicus [3] = species on record: Rattus norvegicus; test: Kidney uptake in normal Wistar rats at 15 min; format: ADME, organism-based; details: in vivo, 0.25 h
Rattus norvegicus [4] = species on record: Rattus norvegicus; test: Ratio of biodistribution in liver and blood in normal Wistar rats at 60 min. after injecting the compound; format: ADME, organism-based; details: in vivo, 1 h
Rattus norvegicus [5] = species on record: Rattus norvegicus; test: The biodistribution in blood in normal Wistar rats at 60 min; format: ADME, organism-based; details: in vivo, 1 h
Rattus norvegicus [6] = species on record: Rattus norvegicus; test: Ratio of biodistribution in liver and blood in normal Wistar rats at 30 min. after injecting the compound; format: ADME, organism-based; details: in vivo, 0.5 h
Rattus norvegicus [7] = species on record: Rattus norvegicus; test: Kidney uptake in normal Wistar rats at 5 min; format: ADME, organism-based; details: in vivo
Rattus norvegicus [8] = species on record: Rattus norvegicus; test: Ratio of biodistribution in kidney and blood in normal Wistar rats at 5 min after injecting the compound; format: ADME, organism-based; details: in vivo
Rattus norvegicus [9] = species on record: Rattus norvegicus; test: The biodistribution in blood in normal Wistar rats at 30 min; format: ADME, organism-based; details: in vivo, 0.5 h
Rattus norvegicus [10] = species on record: Rattus norvegicus; test: The biodistribution in blood in normal Wistar rats at 15 min; format: ADME, organism-based; details: in vivo, 0.25 h
Rattus norvegicus [11] = species on record: Rattus norvegicus; test: Ratio of biodistribution in kidney and blood in normal Wistar rats at 15 min after injecting the compound; format: ADME, organism-based; details: in vivo, 0.25 h
Rattus norvegicus [12] = species on record: Rattus norvegicus; test: The biodistribution in blood in normal Wistar rats at 5 min; format: ADME, organism-based; details: in vivo
Rattus norvegicus [13] = species on record: Rattus norvegicus; test: The biodistribution in bone in normal Wistar rats at 5 min; format: ADME, organism-based, Bone element; details: in vivo
[14] = Compound was tested for % clearance through the faeces in jaundiced (TR-) Wistar rats; format: ADME, organism-based; details: rat, read-out: Feces
Rattus norvegicus [15] = species on record: Rattus norvegicus; test: Ratio of biodistribution in kidney and blood in normal Wistar rats at 30 min after injecting the compound; format: ADME, organism-based; details: in vivo, 0.5 h
[16] = Compound was tested for % clearance through the faeces in normal Wistar rats; format: ADME, organism-based; details: rat, read-out: Feces
Rattus norvegicus [17] = species on record: Rattus norvegicus; test: The biodistribution in liver in normal Wistar rats at 30 min; format: ADME, organism-based; details: in vivo, 0.5 h
Rattus norvegicus [18] = species on record: Rattus norvegicus; test: The biodistribution in liver in normal Wistar rats at 5 min; format: ADME, organism-based; details: in vivo
Rattus norvegicus [19] = species on record: Rattus norvegicus; test: Ratio of biodistribution in liver and blood in normal Wistar rats at 15 min. after injecting the compound; format: ADME, organism-based; details: in vivo, 0.25 h
Rattus norvegicus [20] = species on record: Rattus norvegicus; test: The biodistribution in bone in normal Wistar rats at 60 min; format: ADME, organism-based, Bone element; details: in vivo, 1 h
Rattus norvegicus [21] = species on record: Rattus norvegicus; test: The biodistribution in bone in normal Wistar rats at 15 min; format: ADME, organism-based, Bone element; details: in vivo, 0.25 h
[22] = Compound was tested for % clearance through the urine in normal rat; format: ADME, organism-based
Rattus norvegicus [23] = species on record: Rattus norvegicus; test: Ratio of biodistribution in liver and blood in normal Wistar rats at 5 min. after injecting the compound; format: ADME, organism-based; details: in vivo
Rattus norvegicus [24] = species on record: Rattus norvegicus; test: Ratio of biodistribution in kidney and blood in normal Wistar rats at 60 min after injecting the compound; format: ADME, organism-based; details: in vivo, 1 h
Rattus norvegicus [25] = species on record: Rattus norvegicus; test: Kidney uptake in normal Wistar rats at 30 min; format: ADME, organism-based; details: in vivo, 0.5 h
Rattus norvegicus [26] = species on record: Rattus norvegicus; test: The biodistribution in liver in normal Wistar rats at 60 min; format: ADME, organism-based; details: in vivo, 1 h
Rattus norvegicus [27] = species on record: Rattus norvegicus; test: The biodistribution in liver in normal Wistar rats at 15 min; format: ADME, organism-based; details: in vivo, 0.25 h
[28] = Compound was tested for % clearance through the urine in jaundiced (TR-) Wistar rats; format: ADME, organism-based; details: rat
Rattus norvegicus [29] = species on record: Rattus norvegicus; test: Ratio of biodistribution in kidney and blood in normal Wistar rats at 15 min after injecting the compound.; format: ADME, organism-based; details: in vivo, 0.25 h
[30] = Compound was tested for % clearance through the faeces in jaundice Wistar rats; format: ADME, organism-based; details: rat, read-out: Feces
Rattus norvegicus [31] = species on record: Rattus norvegicus; test: Ratio of biodistribution in kidney and blood in normal Wistar rats at 5 min after injecting the compound.; format: ADME, organism-based; details: in vivo
[32] = Compound was tested for % clearance through the faeces in Wistar rats; format: ADME, organism-based; details: rat, read-out: Feces

Row | Structure (SMILES) | ID/organ (Rattus norvegicus [1]) [%] | ID/organ (Rattus norvegicus [2]) [%] | ID/organ (Rattus norvegicus [3]) [%] | ID/organ (Rattus norvegicus [4]) | ID/organ (Rattus norvegicus [5]) [%] | ID/organ (Rattus norvegicus [6]) | ID/organ (Rattus norvegicus [7]) [%] | ID/organ (Rattus norvegicus [9]) [%] | ID/organ (Rattus norvegicus [10]) [%] | ID/organ (Rattus norvegicus [12]) [%] | ID/organ (Rattus norvegicus [13]) [%] | ID/organ (Rattus norvegicus [15]) | ID/organ (Rattus norvegicus [17]) [%] | ID/organ (Rattus norvegicus [18]) [%] | ID/organ (Rattus norvegicus [19]) | ID/organ (Rattus norvegicus [20]) [%] | ID/organ (Rattus norvegicus [21]) [%] | dose excreted [22] [%] | ID/organ (Rattus norvegicus [23]) | ID/organ (Rattus norvegicus [24]) | further results
1 | O=C(O)CN(CCN(CCN(CC(=O)O)CC(=O)O)[C@@H](Cc1ccccc1)C(=O)O)CC(=O)O | 2.17 | 1.1 | 3.04 | 0.99 | 0.86 | 0.9 | 4.74 | 2.66 | 6.36 | 12.7 | 4.59 | 0.74 | 2.37 | 13.2 | 1.1 | 2.43 | 3.76 | 62 | 1.04 | 1.3 | ID/organ (Rattus norvegicus [8]): 0.37; ID/organ (Rattus norvegicus [11]): 0.48; dose excreted [14]: 3.3%; dose excreted [16]: 29.2%; ID/organ (Rattus norvegicus [25]): 1.96%; ID/organ (Rattus norvegicus [26]): 0.82%; ID/organ (Rattus norvegicus [27]): 6.84%; dose excreted [28]: 85%
2 | O=C(O)CN(CCN(CCN(CC(=O)O)CC(=O)O)[C@H](Cc1ccccc1)C(=O)O)CC(=O)O | 2.31 | 0.57 | 1.63 | 1.6 | 0.71 | 1.55 | 3.45 | 2.03 | 4.67 | 10.7 | 3.28 | 0.46 | 3.15 | 15.6 | 1.69 | 2.4 | 3.81 | 51.9 | 1.46 | 0.82 | ID/organ (Rattus norvegicus [29]): 0.36; dose excreted [30]: 10.6%; ID/organ (Rattus norvegicus [31]): 0.33; dose excreted [32]: 42.8%; ID/organ (Rattus norvegicus [25]): 0.92%; ID/organ (Rattus norvegicus [26]): 1.1%; ID/organ (Rattus norvegicus [27]): 7.63%; dose excreted [28]: 80.4%
